The assay deals with M. tuberculosis H37Rv growth inhibition. As to the kind of experiment: Mycobacterium tuberculosis H37Rv growth inhibition, cell based, confirmatory dose response (AID 1949).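 Note: bacteria grown 7 days with compound before Alamar blue readout.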

This is an account of results in PubChem BioAssay AID1949 (Southern Research Institute, 2009).

≈ marks a conversion by molar mass, not a printed value. Records with an inconclusive call do not appear. Calls of active or inactive are those of the source. The rule behind the calls is not given here.

In the case of `Cc1nc2ccccc2n1CC(O)COc1ccc(C2C=CCC2)cc1` (centres undefined), the IC50 is 1.22 µg/mL (≈ 3.5 µM).

`CCn1c2ccccc2c2cc(NC(=O)C34CCC(C)(C(=O)C3)C4(C)C)ccc21` (centres undefined): the IC50 is 11.5 µg/mL (≈ 29.7 µM).

With `CC1CCCN(Cc2c(O)ccc3c(=O)c(-c4nc5ccccc5s4)c(N)oc23)C1` (centres undefined), the 50% inhibitory concentration (IC50) is 23.6 µg/mL (≈ 55.9 µM).

`CC(=O)c1ccc(OC(=O)c2sc3ccccc3c2Cl)cc1`: the IC50 was > 50 µg/mL (inactive).

In the case of `CCOC(=O)c1c(NC(=O)CN2CCN(CCO)CC2)sc2c1CCC(C)C2` (centres undefined), the IC50 was 7.17 µg/mL (≈ 17.5 µM).

As to `Oc1ccccc1Nc1nc(NCc2ccco2)c2ccccc2n1`, the IC50 is 5.36 µg/mL (≈ 16.1 µM).

With `N#CCCN(Cc1ccccc1)C(=S)NC(=O)c1ccccc1`, the half-inhibitory concentration (IC50) was 2.51 µg/mL (≈ 7.76 µM).

As to `CCOc1ccc(N2C(=O)CC(Nc3ccccc3O)C2=O)cc1` (centres undefined), the IC50 is 4.58 µg/mL (≈ 14 µM).

On to `CCCCCn1c(NCc2cccs2)nc2ccccc21`, for which the IC50 was 3.41 µg/mL (≈ 11.4 µM).

`Cc1sc(NC(=O)c2cc3ccccc3oc2=O)c(C(=O)OC(C)C)c1C`: the IC50 is 0.66 µg/mL (≈ 1.71 µM).

For the compound `CCOC(=O)COc1ccc2oc(C)c(C(=O)OC)c2c1`, the IC50 is 6.25 µg/mL (≈ 21.4 µM).

As to `CC(C)c1ccc(NCCC(=O)c2cccs2)cc1`, the IC50 is 6.34 µg/mL (≈ 23.2 µM).

For `CC(Nc1nc(N2CCCCC2)nc2ccccc12)c1ccccc1` (centres undefined), the IC50 is 2.29 µg/mL (≈ 6.89 µM).

`O=C(Nc1ccc(-c2nc3ccccc3c(=O)o2)cc1)C(c1ccccc1)c1ccccc1`: the IC50 is > 50 µg/mL (inactive).

In the case of `Clc1ccc(OCc2ccccc2Cl)c(CNCc2ccccc2)c1`, the IC50 is 5.09 µg/mL (≈ 13.7 µM).

For the compound `CCCOc1ccccc1NC(=O)Nc1ccc(Cl)c(Cl)c1`, the IC50 was 1.71 µg/mL (≈ 5.04 µM).

On to `CC12CC3CC(C)(C1)CC(C(=O)NC1=NCCS1)(C3)C2`, for which the half-maximal inhibitory concentration (IC50) was 13 µg/mL (≈ 44.3 µM).

In the case of `COC(=O)C(CC(=O)c1ccc(Br)cc1)n1ccnc1` (centres undefined), the IC50 was 0.7 µg/mL (≈ 2.08 µM).

With `Cc1cccc(C(C)(C)C)c1OCCOCCn1ccnc1`, the IC50 is 3.97 µg/mL (≈ 13.1 µM).

Turning to `O=C(NCCCN1CCN(c2ccc(F)cc2)CC1)NC12CC3CC(CC(C3)C1)C2`, the IC50 is > 50 µg/mL (inactive).

Turning to `COc1cccc(N2CCN(Cc3nc(N)nc(Nc4ccc(C)c(Cl)c4)n3)CC2)c1`, the IC50 was 1.45 µg/mL (≈ 3.3 µM).

On to `CC(C)(C)c1ccc(C(=O)NC(=S)NCc2cccnc2)cc1`, for which the IC50 was 2.47 µg/mL (≈ 7.54 µM).

With `CCOC(=O)CCc1c(C)c(C#N)c2[nH]c3ccccc3n2c1=O`, the IC50 is less than 0.1 µg/mL.

`CC(C)(C)c1ccc(C(=O)NC(=S)Nc2ccc(C(=O)O)cc2)cc1`: the IC50 is 0.64 µg/mL (≈ 1.8 µM).
